In the NIST ThermoML archive (doi:10.1021/je700294p):

Tests used:
[1] = 101.33 kPa, Liquid
[2] = refractive index (Na D-line) (dimensionless); details: 101.33 kPa, Liquid, Standard Abbe refractometry
[3] = xn = mol fraction of the nth substance listed; details: 101 kPa, Liquid
[4] = excess molar enthalpy (molar enthalpy of mixing); xn = mol fraction of the nth substance listed; details: 101 kPa, Liquid

CCCC[n+]1cccc(C)c1.F[B-](F)(F)F [1-butyl-3-methylpyridinium tetrafluoroborate]
Details	mass density, [1] [kg/m3]	refractive index, [2]
298.15 K	1182.19	1.4473
318.15 K	1168.31	1.4422

CCCC[n+]1cccc(C)c1.F[B-](F)(F)F [1-butyl-3-methylpyridinium tetrafluoroborate] + CCCCO
Details	excess molar enthalpy [kcal/mol]	mass density [kg/m3]
[3], 298.15 K, x1 = 0.0166	–	819.7
[3], 298.15 K, x1 = 0.7641	–	1136.6
[3], 298.15 K, x1 = 0.8166	–	1147.7
[3], 298.15 K, x1 = 0.8558	–	1155.7
[3], 298.15 K, x1 = 0.904	–	1165.1
[3], 318.15 K, x1 = 0.0191	–	805.5
[3], 318.15 K, x1 = 0.6961	–	1107.5
[3], 318.15 K, x1 = 0.7777	–	1125.9
[3], 318.15 K, x1 = 0.8535	–	1141.6
[3], 318.15 K, x1 = 0.9084	–	1152.1
[3], 318.15 K, x1 = 0.9479	–	1159.4
[4], 318.15 K, x1 = 0.0098	0.0361	–
[4], 318.15 K, x1 = 0.025	0.0684	–
[4], 318.15 K, x1 = 0.0464	0.138	–
[4], 318.15 K, x1 = 0.3603	0.681	–
[4], 318.15 K, x1 = 0.3932	0.684	–
[4], 318.15 K, x1 = 0.445	0.677	–
[4], 318.15 K, x1 = 0.5101	0.652	–
[4], 318.15 K, x1 = 0.5852	0.591	–
[4], 318.15 K, x1 = 0.6705	0.503	–
[4], 318.15 K, x1 = 0.7667	0.378	–
[4], 318.15 K, x1 = 0.8531	0.264	–
[4], 318.15 K, x1 = 0.9346	0.125	–

CCCC[n+]1cccc(C)c1.F[B-](F)(F)F [1-butyl-3-methylpyridinium tetrafluoroborate] + CCCO
Details	excess molar enthalpy [kcal/mol]	mass density [kg/m3]
[3], 298.15 K, x1 = 0.016	–	816.7
[3], 298.15 K, x1 = 0.4528	–	1066.5
[3], 298.15 K, x1 = 0.494	–	1079.3
[3], 298.15 K, x1 = 0.5262	–	1088.6
[3], 298.15 K, x1 = 0.5959	–	1106.9
[3], 298.15 K, x1 = 0.6934	–	1129.5
[3], 298.15 K, x1 = 0.7543	–	1141.9
[3], 298.15 K, x1 = 0.7993	–	1150.4
[3], 298.15 K, x1 = 0.8582	–	1160.4
[3], 298.15 K, x1 = 0.8962	–	1166.6
[3], 318.15 K, x1 = 0.0143	–	798.4
[3], 318.15 K, x1 = 0.0249	–	808.8
[3], 318.15 K, x1 = 0.0477	–	830.6
[3], 318.15 K, x1 = 0.1003	–	873.4
[3], 318.15 K, x1 = 0.1222	–	890.6
[3], 318.15 K, x1 = 0.1492	–	909.3
[3], 318.15 K, x1 = 0.2	–	940.8
[3], 318.15 K, x1 = 0.2295	–	957.5
[3], 318.15 K, x1 = 0.3112	–	997.8
[3], 318.15 K, x1 = 0.4002	–	1033.6
[3], 318.15 K, x1 = 0.4285	–	1043.6
[3], 318.15 K, x1 = 0.4635	–	1055.3
[3], 318.15 K, x1 = 0.5638	–	1084.7
[3], 318.15 K, x1 = 0.6072	–	1095.8
[3], 318.15 K, x1 = 0.6405	–	1103.5
[3], 318.15 K, x1 = 0.7096	–	1118.9
[3], 318.15 K, x1 = 0.8001	–	1136.9
[3], 318.15 K, x1 = 0.8522	–	1145.7
[3], 318.15 K, x1 = 0.9028	–	1154.2
[4], 298.15 K, x1 = 0.0139	0.039	–
[4], 298.15 K, x1 = 0.0242	0.0564	–
[4], 298.15 K, x1 = 0.0278	0.0681	–
[4], 298.15 K, x1 = 0.3397	0.56	–
[4], 298.15 K, x1 = 0.3707	0.56	–
[4], 298.15 K, x1 = 0.4045	0.552	–
[4], 298.15 K, x1 = 0.4278	0.544	–
[4], 298.15 K, x1 = 0.4642	0.531	–
[4], 298.15 K, x1 = 0.498	0.506	–
[4], 298.15 K, x1 = 0.5458	0.47	–
[4], 298.15 K, x1 = 0.5983	0.416	–
[4], 298.15 K, x1 = 0.6621	0.364	–
[4], 298.15 K, x1 = 0.7278	0.298	–
[4], 298.15 K, x1 = 0.7939	0.229	–
[4], 298.15 K, x1 = 0.8653	0.164	–
[4], 298.15 K, x1 = 0.9335	0.0973	–
[4], 318.15 K, x1 = 0.0232	0.0997	–
[4], 318.15 K, x1 = 0.052	0.185	–
[4], 318.15 K, x1 = 0.0852	0.276	–
[4], 318.15 K, x1 = 0.1233	0.371	–
[4], 318.15 K, x1 = 0.1608	0.46	–
[4], 318.15 K, x1 = 0.2011	0.534	–
[4], 318.15 K, x1 = 0.2044	0.552	–
[4], 318.15 K, x1 = 0.2311	0.583	–
[4], 318.15 K, x1 = 0.2591	0.611	–
[4], 318.15 K, x1 = 0.2896	0.634	–
[4], 318.15 K, x1 = 0.3223	0.652	–
[4], 318.15 K, x1 = 0.3585	0.663	–
[4], 318.15 K, x1 = 0.3982	0.664	–
[4], 318.15 K, x1 = 0.4404	0.655	–
[4], 318.15 K, x1 = 0.4891	0.634	–
[4], 318.15 K, x1 = 0.5441	0.598	–
[4], 318.15 K, x1 = 0.6073	0.537	–
[4], 318.15 K, x1 = 0.674	0.457	–
[4], 318.15 K, x1 = 0.7504	0.361	–
[4], 318.15 K, x1 = 0.8323	0.252	–
[4], 318.15 K, x1 = 0.9131	0.143	–

CCCC[n+]1cccc(C)c1.F[B-](F)(F)F [1-butyl-3-methylpyridinium tetrafluoroborate] + CCO
Details	excess molar enthalpy [kcal/mol]	mass density [kg/m3]
[3], 298.15 K, x1 = 0.0518	–	851.1
[3], 298.15 K, x1 = 0.0719	–	872.9
[3], 298.15 K, x1 = 0.1054	–	905.6
[3], 298.15 K, x1 = 0.1999	–	975.5
[3], 298.15 K, x1 = 0.2539	–	1006.2
[3], 298.15 K, x1 = 0.3	–	1028.2
[3], 298.15 K, x1 = 0.4054	–	1068.6
[3], 298.15 K, x1 = 0.5082	–	1098.9
[3], 298.15 K, x1 = 0.5895	–	1118
[3], 298.15 K, x1 = 0.664	–	1133
[3], 298.15 K, x1 = 0.7275	–	1144.5
[3], 298.15 K, x1 = 0.7682	–	1151
[3], 318.15 K, x1 = 0.0401	–	821.1
[3], 318.15 K, x1 = 0.0671	–	851
[3], 318.15 K, x1 = 0.0992	–	882.7
[3], 318.15 K, x1 = 0.1497	–	924.5
[3], 318.15 K, x1 = 0.2531	–	989.5
[3], 318.15 K, x1 = 0.3062	–	1015.1
[3], 318.15 K, x1 = 0.4041	–	1053
[3], 318.15 K, x1 = 0.5002	–	1082.2
[3], 318.15 K, x1 = 0.5998	–	1106.3
[3], 318.15 K, x1 = 0.6632	–	1118.8
[3], 318.15 K, x1 = 0.7118	–	1127.7
[3], 318.15 K, x1 = 0.7904	–	1141
[4], 298.15 K, x1 = 0.0052	0.0354	–
[4], 298.15 K, x1 = 0.0159	0.0989	–
[4], 298.15 K, x1 = 0.0279	0.148	–
[4], 298.15 K, x1 = 0.0457	0.203	–
[4], 298.15 K, x1 = 0.0691	0.26	–
[4], 298.15 K, x1 = 0.0972	0.312	–
[4], 298.15 K, x1 = 0.1132	0.338	–
[4], 298.15 K, x1 = 0.1263	0.362	–
[4], 298.15 K, x1 = 0.128	0.368	–
[4], 298.15 K, x1 = 0.145	0.396	–
[4], 298.15 K, x1 = 0.1585	0.405	–
[4], 298.15 K, x1 = 0.1639	0.418	–
[4], 298.15 K, x1 = 0.1838	0.445	–
[4], 298.15 K, x1 = 0.2062	0.47	–
[4], 298.15 K, x1 = 0.2305	0.495	–
[4], 298.15 K, x1 = 0.2577	0.515	–
[4], 298.15 K, x1 = 0.2878	0.531	–
[4], 298.15 K, x1 = 0.3217	0.544	–
[4], 298.15 K, x1 = 0.3623	0.546	–
[4], 298.15 K, x1 = 0.4085	0.527	–
[4], 298.15 K, x1 = 0.4689	0.484	–
[4], 298.15 K, x1 = 0.5396	0.425	–
[4], 298.15 K, x1 = 0.6277	0.348	–
[4], 298.15 K, x1 = 0.7386	0.257	–
[4], 298.15 K, x1 = 0.8712	0.14	–
[4], 298.15 K, x1 = 0.9405	0.0727	–
[4], 318.15 K, x1 = 0.0123	0.0626	–
[4], 318.15 K, x1 = 0.0273	0.129	–
[4], 318.15 K, x1 = 0.0472	0.201	–
[4], 318.15 K, x1 = 0.0704	0.269	–
[4], 318.15 K, x1 = 0.098	0.342	–
[4], 318.15 K, x1 = 0.1279	0.411	–
[4], 318.15 K, x1 = 0.1612	0.475	–
[4], 318.15 K, x1 = 0.1789	0.508	–
[4], 318.15 K, x1 = 0.2034	0.544	–
[4], 318.15 K, x1 = 0.2335	0.577	–
[4], 318.15 K, x1 = 0.2681	0.605	–
[4], 318.15 K, x1 = 0.3063	0.627	–
[4], 318.15 K, x1 = 0.3498	0.644	–
[4], 318.15 K, x1 = 0.4055	0.645	–
[4], 318.15 K, x1 = 0.4787	0.615	–
[4], 318.15 K, x1 = 0.5648	0.549	–
[4], 318.15 K, x1 = 0.6576	0.451	–
[4], 318.15 K, x1 = 0.7668	0.326	–
[4], 318.15 K, x1 = 0.881	0.184	–
